Data on 18 compounds can be found in patent US11542290B2 (priority 2018, dated 2023).

Structures are written as SMILES. Values joined by “and” are separate entries in the source; they are usually repeats but may differ in a detail not shown here. Identical values can stand only once. Like-named read-outs stand apart in the source and are kept apart here.

The subject of one series is P-gp (MDR1). Put plainly: in vitro. The settings on record: dog.
The nature of another series: in vitro. The note with it: human.
Series [1] relates to Caco-2 cells.
In a further series the test system is rps29−/− embryos. The note with it: in vivo, cited from earlier work.
In series [2] the test system is CD34+ hematopoietic stem and progenitor cells with rps19 knockdown. The settings on record: cited from earlier work.
In series [3] the test system is Caco-2 cells. The settings on record: cited from earlier work.
For series [4] the following is noted: antipsychotic potency; cited from earlier work.
For series [5] the following is noted: in vivo; cited from earlier work.
For series [6], the system named is embryos of Rps29 heterozygote fish. Put plainly: Zebra fish assay (tail mutation and anemia classification, o-dianisidine staining).
For a further series, the system named is DBA murine model. The note with it: injection; cited from earlier work.
Series [7] concerns the target p70 ribosomal S6 kinase (p70S6K) (Homo sapiens (Human), UniProt P23443). The settings on record: profiling of over 100 kinases; cited from earlier work.
Setting [8] is: MDCK-MDR1, Permeability coefficient (Papp) MDCK-MDR1 cells (A -> B).
[9] abbreviates: MDCK-MDR1, Permeability coefficient (Papp) MDCK-MDR1 cells (B -> A).
Where [10] appears, read: Caco-2, Efflux ratio Caco-2 cells.
[11] abbreviates: Caco-2, Permeability coefficient (Papp) Caco-2 cells (A -> B).
The mark [12] stands for this setting: Caco-2, Permeability coefficient (Papp) Caco-2 cells (B -> A).
Where [13] appears, read: MDCK-MDR1, Efflux ratio MDCK-MDR1 cells.
The mark [14] stands for this setting: 10 μM of the compound, 48 hours of treatment from 24 hours post fertilization.

Chain of p70 ribosomal S6 kinase (p70S6K) (P23443 whole entry): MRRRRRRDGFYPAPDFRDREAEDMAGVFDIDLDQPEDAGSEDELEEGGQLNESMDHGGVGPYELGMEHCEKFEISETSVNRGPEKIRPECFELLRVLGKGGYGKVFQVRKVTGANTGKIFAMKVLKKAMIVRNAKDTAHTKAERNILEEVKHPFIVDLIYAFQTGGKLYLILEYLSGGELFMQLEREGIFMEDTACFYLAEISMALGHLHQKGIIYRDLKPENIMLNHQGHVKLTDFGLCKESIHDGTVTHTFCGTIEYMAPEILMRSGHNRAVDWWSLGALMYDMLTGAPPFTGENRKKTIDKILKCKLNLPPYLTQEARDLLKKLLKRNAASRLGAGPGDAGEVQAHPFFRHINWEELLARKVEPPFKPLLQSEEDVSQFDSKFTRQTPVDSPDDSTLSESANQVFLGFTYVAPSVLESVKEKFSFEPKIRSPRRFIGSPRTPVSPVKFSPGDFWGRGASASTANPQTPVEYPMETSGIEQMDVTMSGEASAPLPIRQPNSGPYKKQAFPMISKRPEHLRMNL

Usually Papp A→B stands for how fast a substance crosses the layer from the apical side. Read a low Papp A→B as slow passage. The term Papp B→A denotes the apparent permeability from the basolateral to the apical side of a cell layer. What is called efflux ratio is a quotient of directional permeabilities that is used to spot active efflux. In turn, `CN1CCN(CCCN2c3ccccc3Sc3ccc(Cl)cc32)CC1` [Prochloperazine] gave an apparent permeability from apical to basolateral (Papp A→B) at 60 min in the series on P-gp (MDR1) (setting [8]) below 1.28 ×10⁻⁶ cm/s. The compound further yielded a Papp B→A at 60 min in the series on P-gp (MDR1) (setting [9]) below 0.59 ×10⁻⁶ cm/s. Besides, in the series “in vitro” (setting [10]), the efflux ratio at 2 h turned out to be 0.35. This compound showed a Papp A→B at 2 h in the series “in vitro” (setting [11]) of 1.29 ×10⁻⁶ cm/s. This compound also came in with a Papp B→A at 2 h in “in vitro” (setting [12]) of 0.46 ×10⁻⁶ cm/s.

With `CS(=O)(=O)NCC1CCN(CC(O)CN2c3ccccc3Sc3ccc(C(F)(F)F)cc32)CC1` (stereo not shown) [MT-036, N-((1-(2-hydroxy-3-(2-(trifluoromethyl)-10H-phenothiazin-10-yl)propyl)piperidin-4-yl)methyl)methanesulfonamide], the “Permeability coefficient (Papp) MDCK-MDR1 cells (A -> B)” value in the series on MDCK-MDR1 cells (apical to basolateral, 60-min, 37° C.) is reported as 2.85 10^−6 cm/s. Besides, the “Permeability coefficient (Papp) MDCK-MDR1 cells (B -> A)” value in the series with MDCK-MDR1 cells (basolateral to apical, 60-min, 37° C.) is listed as 13.91 10^−6 cm/s. Besides, the “Efflux ratio MDCK-MDR1 cells” value in the series with MDCK-MDR1 cells (from mean Papp B-A and A-B, 60-min transport, 37° C.) is reported as 4.89. In addition, the “Permeability coefficient (Papp) Caco-2 cells (A -> B)” value with Caco-2 cells [1] (apical to basolateral, 2-hour) is reported as 8.55 10^−6 cm/s. The “Permeability coefficient (Papp) Caco-2 cells (B -> A)” value with Caco-2 cells [1] (basolateral to apical, 2-hour) is on record as 15.93 10^−6 cm/s. The “Efflux ratio Caco-2 cells” value in the series with Caco-2 cells [1] (from mean Papp B-A and A-B, 2-hour transport) is listed as 1.86.

On to `OCCN1CCN(CCCN2c3ccccc3Sc3ccc(C(F)(F)F)cc32)CC1` [Fluphenazine, 4-[3-[2-(trifluoromethyl)phenothiazin-10-yl]lpropyl]-1-piperazineethanol], for which the “Endothelial defect in rps29 mutant embryos (in words)” value (“Endothelial defect” for short) in the series on rps29−/− embryos (zebrafish) is listed as “successfully rescued the endothelial defect”.

With `CC1(CN2CCC(n3c(=O)[nH]c4ccccc43)CC2)OCc2ccccc2-n2cccc21.O=C(O)/C=C\C(=O)O` (stereo not shown) [CGS-9343B], in the series on rps29−/− embryos (zebrafish), the “Endothelial defect” value is on record as “successfully rescued the endothelial defect”.

For `NCCNS(=O)(=O)c1cccc2c(Cl)cccc12` [Compound A-3], the “Concentration decreasing the levels of p21 in CD34+ cells” value in series [2] (in vitro) is 1 to 50 µM. Also, the “p53 and p21 levels or nuclear localization (in words)” value in series [2] (rps19 knockdown by siRNA) was “decreased p53 and p21 levels or nuclear localization”. The “Hemoglobin levels in the zebrafish embryo (in words)” value in the series with rps29−/− embryos is listed as “rescued hemoglobin levels”. In the series on rps29−/− embryos (zebrafish), the “Morphology of the embryo head (in words)” value is given as “improved the morphology of the apoptotic embryo head”.

Consider `c1ccc2c(c1)Nc1ccccc1S2` [10H-phenothiazine], for which, in the series with P-gp (MDR1) (MDCK-MDR1), the Papp A→B at 60 min was 53.8 ×10⁻⁶ cm/s, the basolateral-to-apical permeability (Papp B→A) at 60 min stood at 38 ×10⁻⁶ cm/s and the efflux ratio at 60 min was 0.71. Besides, in “in vitro” (Caco-2), the Papp A→B at 2 h stood at 42.7 ×10⁻⁶ cm/s, the basolateral-to-apical permeability (Papp B→A) at 2 h was found to be 37.7 ×10⁻⁶ cm/s and the efflux ratio at 2 h worked out at 0.88.

With `COCCc1ccc(OCC(O)CNC(C)C)cc1` (stereo not shown) [Metoprolol], the efflux ratio at 60 min with P-gp (MDR1) (setting [13]) came out at 0.81. Besides, in the series on Caco-2 cells [3], the “Cell permeability of reference compound (in words)” value was “high cell permeability”. The “Efflux ratio MDCK-MDR1 cells” value in the series on MDCK-MDR1 cells (dog, MDCK-MDR1, 60 min) is on record as 0.85. Also, the “Efflux ratio Caco-2 cells” value with Caco-2 cells [1] (human, Caco-2, 2 h) is on record as 1.11. Further, the efflux ratio at 2 h in the series “in vitro” (setting [10]) came to 0.89. The same compound displayed a Papp A→B at 2 h in the series “in vitro” (setting [11]) of 33.8 ×10⁻⁶ cm/s. Besides, the basolateral-to-apical permeability (Papp B→A) at 2 h in “in vitro” (setting [12]) was found to be 30.2 ×10⁻⁶ cm/s.

Regarding `CC[C@H]1OC(=O)[C@H](C)[C@@H](O[C@H]2C[C@@](C)(OC)[C@@H](O)[C@H](C)O2)[C@H](C)[C@@H](O[C@@H]2O[C@H](C)C[C@H](N(C)C)[C@H]2O)[C@](C)(O)C[C@@H](C)C(=O)[C@H](C)[C@@H](O)[C@]1(C)O` [Erythromycin], in the series on P-gp (MDR1) (setting [13]), the efflux ratio at 60 min was 0.96. The same compound came in with a Papp A→B at 60 min in the series with P-gp (MDR1) (setting [8]) of 31.9 ×10⁻⁶ cm/s. In addition, the Papp B→A at 60 min with P-gp (MDR1) (setting [9]) amounted to 30.6 ×10⁻⁶ cm/s. In the series on Caco-2 cells [3] (Caco-2), the “Efflux status of reference compound (in words)” value is listed as “efflux substrates”. Also, the efflux ratio at 2 h in the series “in vitro” (setting [10]) is above 173. Also, in the series “in vitro” (setting [11]), the Papp A→B at 2 h was 0.21 ×10⁻⁶ cm/s. Further, in the series “in vitro” (setting [12]), the Papp B→A at 2 h was 21.9 ×10⁻⁶ cm/s.

Consider `NCCCCCCNS(=O)(=O)c1cccc2c(Cl)cccc12` [Compound W-7], for which, in the series on rps29−/− embryos, the “Hemoglobin levels in the zebrafish embryo (in words)” value is “rescued hemoglobin levels”. The “Endothelial defect” value in the series with rps29−/− embryos (zebrafish) is given as “rescued the endothelial defect”.

Consider `FC(F)(F)c1ccc2c(c1)N(CCCCN1CCCCC1)c1ccccc1S2` [MT-009, 10-(4-(piperidin-1-yl)butyl)-2-(trifluoromethyl)-10H-phenothiazine], for which, in the series with P-gp (MDR1) (setting [8]), the Papp A→B at 60 min was below 1.42 ×10⁻⁶ cm/s. In addition, the “Efflux ratio MDCK-MDR1 cells” value in the series on MDCK-MDR1 cells (dog, MDCK-MDR1, 60 min) was 0. Also, the efflux ratio at 2 h in “in vitro” (setting [10]) turned out to be 0.68. The apparent permeability from apical to basolateral (Papp A→B) at 2 h in the series “in vitro” (setting [11]) came to 3.81 ×10⁻⁶ cm/s. Also, the Papp B→A at 2 h in “in vitro” (setting [12]) turned out to be 2.61 ×10⁻⁶ cm/s.

Turning to `OCCN1CCN(CCCN2c3ccccc3Sc3ccc(Cl)cc32)CC1` [Perphenazine, 4-[3-(2-Chloro-10H-phenothiazin-10-yl)propyl]-1-piperazineethanol], in the series on rps29−/− embryos (zebrafish), the “Endothelial defect” value is listed as “successfully rescued the endothelial defect”. Also, in series [4], the “Potency relative to chlorpromazine” value is given as “approximately 5 times”. Further, the Oral bioavailability entry in [5] is “approximately 40%”.

For the compound `C=C[C@H]1C[N@@]2CC[C@H]1C[C@@H]2[C@@H](O)c1ccnc2ccc(OC)cc12` [Quinidine], the Papp A→B at 60 min in the series on P-gp (MDR1) (setting [8]) was 10.1 ×10⁻⁶ cm/s. Also, in the series with P-gp (MDR1) (setting [9]), the Papp B→A at 60 min was determined as 44 ×10⁻⁶ cm/s.

In the case of `NCCCCCCNS(=O)(=O)c1cccc2ccccc12` [Compound W-5], the “Vascular defects in rps29 mutant embryos (in words)” value in the series with rps29−/− embryos (zebrafish) was “rescued vascular defects”.

With `OCCOCCOCCN1CCN(CC(O)CN2c3ccccc3Sc3ccc(C(F)(F)F)cc32)CC1` (stereo not shown) [MT-016, 1-(4-(2-(2-(2-hydroxyethoxy)ethoxy)ethyl)piperazin-1-yl)-3-(2-(trifluoromethyl)-10H-phenothiazin-10-yl)propan-2-ol], the efflux ratio at 60 min in the series on P-gp (MDR1) (setting [13]) was above 9.83. This compound yielded an apical-to-basolateral permeability (Papp A→B) at 60 min with P-gp (MDR1) (setting [8]) of 1.05 ×10⁻⁶ cm/s. Also, the Papp B→A at 60 min in the series with P-gp (MDR1) (setting [9]) turned out to be 10.3 ×10⁻⁶ cm/s. Further, in series [6] (setting [14]), the “Ratio of embryos in group MA (mutant anemic)” value was 7% and 9% and 5%; the “Ratio of embryos in group MNA (mutant not anemic)” value is 7% and 8%; the “Ratio of embryos in group MPA (mutant partial anemic)” value was 17% and 10% and 15%; the “Ratio of embryos in group WT (wild type)” value is 69% and 74% and 72%. Moreover, the efflux ratio at 2 h in the series “in vitro” (setting [10]) stood at 1.33. The same compound gave a Papp A→B at 2 h in the series “in vitro” (setting [11]) of 12.5 ×10⁻⁶ cm/s. The Papp B→A at 2 h in the series “in vitro” (setting [12]) was determined as 16.6 ×10⁻⁶ cm/s.

With `OCCN(CCO)CC(O)CN1c2ccccc2Sc2ccc(C(F)(F)F)cc21` (stereo not shown) [MT-014, 2,2′-(2-hydroxy-3-(2-(trifluoromethyl)-10H-phenothiazin-10-yl)propylazanediyl)-diethanol], the “Tail and anemia phenotypes versus DMSO (in words)” value in series [6] (10 μM, three experiments) was “less severe tail and anemia phenotypes”.

In the case of `CN1CCN(CCCN2c3ccccc3Sc3ccc(S(=O)(=O)N(C)C)cc32)CC1` [Thioproperazine Dimesilate], in the series on P-gp (MDR1) (setting [8]), the Papp A→B at 60 min turned out to be 3.35 ×10⁻⁶ cm/s. The same compound yielded a basolateral-to-apical permeability (Papp B→A) at 60 min in the series on P-gp (MDR1) (setting [9]) of 3.56 ×10⁻⁶ cm/s. The compound also gave an apparent permeability from apical to basolateral (Papp A→B) at 2 h in “in vitro” (setting [11]) of 4.07 ×10⁻⁶ cm/s. For the same compound, in the series “in vitro” (setting [12]), the Papp B→A at 2 h came to 3.51 ×10⁻⁶ cm/s.

With `CN1CCN(CCCN2c3ccccc3Sc3ccc(C(F)(F)F)cc32)CC1` [Trifluoperazine, 10-[3-(4-methylpiperazin-1-yl)propyl]-2-(trifluoromethyl)phenothiazine], the “Concentration restoring the percentage of CD71+ cells in an erythroid cell population” value in series [2] (in vitro) was 5 to 20 µM. Besides, the “Erythroid differentiation block (in words)” value in [2] (shRNA against RPS19, primary CD34+ bone marrow cells from DBA patients) was “relieved the erythroid differentiation block”. Further, the Papp A→B at 60 min with P-gp (MDR1) (setting [8]) was below 0.87 ×10⁻⁶ cm/s. The “Endothelial defect” value in the series on rps29−/− embryos (zebrafish) was “successfully rescued the endothelial defect”. For the same compound, in the series on DBA murine model, the “Red blood cell number and hemoglobin levels (in words)” value was “significantly increased red blood cell number and hemoglobin levels”; the “p53 activity in the bone marrow (in words)” value is “reduced p53 activity in the bone marrow”. Further, the “Kinase activity of p70S6K (in words)” value in [7] was “inhibited the activity”.

With `NCCCCCCCCCCNS(=O)(=O)c1cccc2c(Cl)cccc12` [Compound A-7], the “Vascular defects in rps29 mutant embryos (in words)” value in the series with rps29−/− embryos (zebrafish) was “rescued vascular defects”.
